Reference: ChEMBL document CHEMBL1132390, “Chemical modifications and structure activity studies of ziracin and related everninomicin antibiotics” (1999)
In brackets after ≈: the same amount, converted by molar mass.

Legend:
Staphylococcus sp. = assay: In vitro antibacterial activity of compound against Staphylococci bacteria.; format: functional
Enterococcus sp. = assay: In vitro antibacterial activity of compound against Enterococci bacteria.; format: functional

Compound | MIC (Staphylococcus sp.) [µg/mL] | MIC (Enterococcus sp.) [µg/mL]
COC[C@H]1O[C@@H](O[C@@H]2OC[C@@H]3O[C@@]4(OC[C@@H](OC(=O)c5c(C)cc(O)cc5O)[C@@H]5OCO[C@H]54)O[C@H]3[C@H]2O)[C@@H](OC)[C@@H](O)[C@@H]1O[C@@H]1O[C@H](C)[C@H](OC)[C@H](O[C@@H]2O[C@H](C)[C@H]3O[C@]4(C[C@@H](O)[C@H](O[C@H]5C[C@@H](O[C@H]6C[C@](C)(NC(C)=O)[C@@H](OC)[C@H](C)O6)[C@H](OC(=O)c6c(C)c(Cl)c(O)c(Cl)c6OC)[C@@H](C)O5)[C@@H](C)O4)O[C@]3(C)[C@@H]2O)[C@@]1(C)O | 1 (≈ 0.603 µM) | 2 (≈ 1.21 µM)
COC[C@H]1O[C@@H](O[C@@H]2OC[C@@H]3O[C@@]4(OC[C@@H](OC(=O)c5c(C)cc(O)cc5O)[C@@H]5OCO[C@H]54)O[C@H]3[C@H]2O)[C@@H](OC)[C@@H](O)[C@@H]1O[C@@H]1O[C@H](C)[C@H](OC)[C@H](O[C@@H]2O[C@H](C)[C@H]3O[C@]4(C[C@@H](O)[C@H](O[C@H]5C[C@@H](O[C@H]6C[C@](C)([N+](=O)[O-])[C@@H](OC)[C@H](C)O6)[C@H](OC(=O)c6c(C)c(Cl)c(O)c(Cl)c6OC)[C@@H](C)O5)[C@@H](C)O4)O[C@]3(C)[C@@H]2O)[C@H]1O [EVERNIMICIN] | 2 (≈ 1.23 µM) | 0.25 (≈ 0.153 µM)
COC[C@H]1O[C@@H](O[C@@H]2OC[C@@H]3O[C@@]4(OC[C@@H](OC(=O)c5c(C)cc(O)cc5O)[C@@H]5OCO[C@H]54)O[C@H]3[C@H]2O)[C@@H](OC)[C@@H](O)[C@@H]1O[C@@H]1O[C@H](C)[C@H](OC)[C@H](O[C@@H]2O[C@H](C)[C@H]3O[C@]4(C[C@@H](O)[C@H](O[C@H]5C[C@@H](O[C@H]6C[C@](C)(NC(=O)[C@H](CCSC)NC(=O)OCc7ccccc7)[C@@H](OC)[C@H](C)O6)[C@H](OC(=O)c6c(C)c(Cl)c(O)c(Cl)c6OC)[C@@H](C)O5)[C@@H](C)O4)O[C@]3(C)[C@@H]2O)[C@@]1(C)O | 2 (≈ 1.06 µM) | 2 (≈ 1.06 µM)
C=CCOc1cc(C)c(C(=O)O[C@@H]2CO[C@]3(O[C@H]4[C@@H](OCCO)[C@H](O[C@@H]5O[C@H](COC)[C@@H](O[C@@H]6O[C@H](C)[C@H](OC)[C@H](O[C@@H]7O[C@H](C)[C@H]8O[C@]9(C[C@@H](O)[C@H](O[C@H]%10C[C@@H](O[C@H]%11C[C@](C)([N+](=O)[O-])[C@@H](OC)[C@H](C)O%11)[C@H](OC(=O)c%11c(C)c(Cl)c(OCC=C)c(Cl)c%11OC)[C@@H](C)O%10)[C@@H](C)O9)O[C@]8(C)[C@@H]7O)[C@@]6(C)O)[C@H](O)[C@@H]5OC)OC[C@@H]4O3)[C@@H]3OCO[C@H]32)c(OCC=C)c1 | 16 (≈ 8.84 µM) | 8 (≈ 4.42 µM)
COC[C@H]1O[C@@H](O[C@@H]2OC[C@@H]3O[C@@]4(OC[C@@H](OC(=O)c5c(C)cc(O)cc5O)[C@@H]5OCO[C@H]54)O[C@H]3[C@H]2O)[C@@H](OC)[C@@H](O)[C@@H]1O[C@@H]1O[C@H](C)[C@H](OC)[C@H](O[C@@H]2O[C@H](C)[C@H]3O[C@]4(C[C@@H](O)[C@H](O[C@H]5C[C@@H](O[C@H]6C[C@](C)(N)[C@@H](OC)[C@H](C)O6)[C@H](OC(=O)c6c(C)c(Cl)c(O)c(Cl)c6OC)[C@@H](C)O5)[C@@H](C)O4)O[C@]3(C)[C@@H]2O)[C@@]1(C)O | 2 (≈ 1.24 µM) | 4 (≈ 2.48 µM)

The remaining compounds from weak to strong by MIC (Staphylococcus sp.), led by results:

MIC (Staphylococcus sp.) [µg/mL] | MIC (Enterococcus sp.) [µg/mL] | Compound
32 (≈ 15.9 µM) | 8 (≈ 3.98 µM) | COC[C@H]1O[C@@H](O[C@@H]2OC[C@@H]3O[C@@]4(OC[C@@H](OC(=O)c5c(C)cc(O)cc5O)[C@@H]5OCO[C@H]54)O[C@H]3[C@H]2O)[C@@H](OC)[C@@H](O)[C@@H]1O[C@@H]1O[C@H](C)[C@H](OC)[C@H](O[C@@H]2O[C@H](C)[C@H]3O[C@]4(C[C@@H](O)[C@H](O[C@H]5C[C@@H](O[C@H]6C[C@](C)(NC(=O)[C@@H](CCCCNC(=O)OCc7ccccc7)NC(=O)OCc7ccccc7)[C@@H](OC)[C@H](C)O6)[C@H](OC(=O)c6c(C)c(Cl)c(O)c(Cl)c6OC)[C@@H](C)O5)[C@@H](C)O4)O[C@]3(C)[C@@H]2O)[C@@]1(C)O
32 (≈ 17.2 µM) | 4 (≈ 2.15 µM) | COC[C@H]1O[C@@H](O[C@@H]2OC[C@@H]3O[C@@]4(OC[C@@H](OC(=O)c5c(C)cc(O)cc5O)[C@@H]5OCO[C@H]54)O[C@H]3[C@H]2OCC(=O)OC)[C@@H](OC)[C@@H](OCC(=O)OC)[C@@H]1O[C@@H]1O[C@H](C)[C@H](OC)[C@H](O[C@@H]2O[C@H](C)[C@H]3O[C@]4(C[C@@H](O)[C@H](O[C@H]5C[C@@H](O[C@H]6C[C@](C)([N+](=O)[O-])[C@@H](OC)[C@H](C)O6)[C@H](OC(=O)c6c(C)c(Cl)c(O)c(Cl)c6OC)[C@@H](C)O5)[C@@H](C)O4)O[C@]3(C)[C@@H]2OCC(=O)OC)[C@@]1(C)O
16 (≈ 9.33 µM) | 4 (≈ 2.33 µM) | COC[C@H]1O[C@@H](O[C@@H]2OC[C@@H]3O[C@@]4(OC[C@@H](OC(=O)c5c(C)cc(O)cc5O)[C@@H]5OCO[C@H]54)O[C@H]3[C@H]2OC)[C@@H](OC)[C@@H](OC)C1O[C@@H]1O[C@H](C)[C@H](OC)C(O[C@@H]2O[C@H](C)[C@H]3O[C@]4(C[C@@H](OC)[C@H](O[C@H]5C[C@@H](O[C@H]6C[C@](C)([N+](=O)[O-])[C@@H](OC)[C@H](C)O6)[C@H](OC(=O)c6c(C)c(Cl)c(O)c(Cl)c6OC)[C@@H](C)O5)[C@@H](C)O4)O[C@]3(C)[C@@H]2OC)[C@@]1(C)OC (stereo partly specified)
4 (≈ 2.37 µM) | 4 (≈ 2.37 µM) | C=CCOc1c(Cl)c(C)c(C(=O)O[C@@H]2[C@@H](C)O[C@@H](O[C@H]3[C@H](O)C[C@]4(O[C@@H]5[C@@H](C)O[C@@H](O[C@H]6[C@@H](OC)[C@@H](C)O[C@@H](O[C@H]7[C@H](O)[C@H](OC)[C@H](O[C@@H]8OC[C@@H]9O[C@@]%10(OC[C@@H](OC(=O)c%11c(C)cc(O)cc%11O)[C@@H]%11OCO[C@H]%11%10)O[C@H]9[C@H]8O)O[C@@H]7COC)[C@]6(C)O)[C@@H](O)[C@@]5(C)O4)O[C@@H]3C)C[C@H]2O[C@H]2C[C@](C)([N+](=O)[O-])[C@@H](OC)[C@H](C)O2)c(OC)c1Cl
4 (≈ 2.37 µM) | 4 (≈ 2.37 µM) | COC[C@H]1O[C@@H](O[C@@H]2OC[C@@H]3O[C@@]4(OC[C@@H](OC(=O)c5c(C)cc(O)cc5O)[C@@H]5OCO[C@H]54)O[C@H]3[C@H]2O)[C@@H](OC)[C@@H](O)[C@@H]1O[C@@H]1O[C@H](C)[C@H](OC)[C@H](O[C@@H]2O[C@H](C)[C@H]3O[C@]4(C[C@@H](O)[C@H](O[C@H]5C[C@@H](O[C@H]6C[C@](C)(NC(=O)[C@H](C)N)[C@@H](OC)[C@H](C)O6)[C@H](OC(=O)c6c(C)c(Cl)c(O)c(Cl)c6OC)[C@@H](C)O5)[C@@H](C)O4)O[C@]3(C)[C@@H]2O)[C@@]1(C)O
2 (≈ 1.16 µM) | 4 (≈ 2.31 µM) | COC[C@H]1O[C@@H](O[C@@H]2OC[C@@H]3O[C@@]4(OC[C@@H](OC(=O)c5c(C)cc(O)cc5O)[C@@H]5OCO[C@H]54)O[C@H]3[C@H]2OCCNC(C)=O)[C@@H](OC)[C@@H](O)[C@@H]1O[C@@H]1O[C@H](C)[C@H](OC)[C@H](O[C@@H]2O[C@H](C)[C@H]3O[C@]4(C[C@@H](O)[C@H](O[C@H]5C[C@@H](O[C@H]6C[C@](C)([N+](=O)[O-])[C@@H](OC)[C@H](C)O6)[C@H](OC(=O)c6c(C)c(Cl)c(O)c(Cl)c6OC)[C@@H](C)O5)[C@@H](C)O4)O[C@]3(C)[C@@H]2O)[C@@]1(C)O
2 (≈ 1.17 µM) | 2 (≈ 1.17 µM) | COC[C@H]1O[C@@H](O[C@@H]2OC[C@@H]3O[C@@]4(OC[C@@H](OC(=O)c5c(C)cc(O)cc5O)[C@@H]5OCO[C@H]54)O[C@H]3[C@H]2OCCN=[N+]=[N-])[C@@H](OC)[C@@H](O)[C@@H]1O[C@@H]1O[C@H](C)[C@H](OC)[C@H](O[C@@H]2O[C@H](C)[C@H]3O[C@]4(C[C@@H](O)[C@H](O[C@H]5C[C@@H](O[C@H]6C[C@](C)([N+](=O)[O-])[C@@H](OC)[C@H](C)O6)[C@H](OC(=O)c6c(C)c(Cl)c(O)c(Cl)c6OC)[C@@H](C)O5)[C@@H](C)O4)O[C@]3(C)[C@@H]2O)[C@@]1(C)O
1 (≈ 0.592 µM) | 0.5 (≈ 0.296 µM) | COC[C@H]1O[C@@H](O[C@@H]2OC[C@@H]3O[C@@]4(OC[C@@H](OC(=O)c5c(C)cc(O)cc5O)[C@@H]5OCO[C@H]54)O[C@H]3[C@H]2OCCO)[C@@H](OC)[C@@H](O)[C@@H]1O[C@@H]1O[C@H](C)[C@H](OC)[C@H](O[C@@H]2O[C@H](C)[C@H]3O[C@]4(C[C@@H](O)[C@H](O[C@H]5C[C@@H](O[C@H]6C[C@](C)([N+](=O)[O-])[C@@H](OC)[C@H](C)O6)[C@H](OC(=O)c6c(C)c(Cl)c(O)c(Cl)c6OC)[C@@H](C)O5)[C@@H](C)O4)O[C@]3(C)[C@@H]2O)[C@@]1(C)O
